Key:
Type in all cases: biochemical
OsCPS4 = molecular target: T1, OsCPS4 (Oryza sativa, UniProt Q0JF02); test: GC-MS of product after dephosphorylation; settings: product syn-CDP, detected as syn-copalol after calf intestinal alkaline phosphatase
T1 construct: gene CPS4; enzyme preparation not described in main text

HpDTC1 [1] = molecular target: T2, HpDTC1 (Calohypnum plumiforme, UniProt A0A173M1U8); test: GC-MS of reaction product; settings: product syn-pimara-7,15-diene
T2 construct: His6-tag, pCold I, E. coli M-15
T2 sequence (A0A173M1U8 entry or part of it): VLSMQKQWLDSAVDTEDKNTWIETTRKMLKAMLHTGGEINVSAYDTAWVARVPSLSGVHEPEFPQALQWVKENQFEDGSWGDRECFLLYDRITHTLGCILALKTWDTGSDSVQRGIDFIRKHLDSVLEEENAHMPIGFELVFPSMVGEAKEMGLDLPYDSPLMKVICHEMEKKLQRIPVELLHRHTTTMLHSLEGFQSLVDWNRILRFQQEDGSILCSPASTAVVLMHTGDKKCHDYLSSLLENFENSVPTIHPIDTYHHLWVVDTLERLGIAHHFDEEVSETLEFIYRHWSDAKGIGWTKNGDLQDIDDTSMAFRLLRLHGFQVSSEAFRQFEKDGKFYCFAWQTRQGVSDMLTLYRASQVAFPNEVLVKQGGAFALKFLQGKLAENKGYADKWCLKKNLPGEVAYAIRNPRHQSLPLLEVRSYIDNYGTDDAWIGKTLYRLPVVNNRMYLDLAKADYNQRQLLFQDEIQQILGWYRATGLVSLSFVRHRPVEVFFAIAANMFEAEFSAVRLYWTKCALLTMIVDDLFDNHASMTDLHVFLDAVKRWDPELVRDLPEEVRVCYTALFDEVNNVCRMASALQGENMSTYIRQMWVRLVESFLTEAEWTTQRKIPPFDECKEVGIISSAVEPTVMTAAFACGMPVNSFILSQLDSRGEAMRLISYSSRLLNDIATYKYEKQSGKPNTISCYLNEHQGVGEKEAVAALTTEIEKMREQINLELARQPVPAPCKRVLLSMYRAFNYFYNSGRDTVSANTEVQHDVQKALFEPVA

HpDTC1 [2] = molecular target: T3, HpDTC1 (Calohypnum plumiforme, UniProt A0A173M1U8, D394G/D395G); test: GC-MS of product, co-incubation with OsCPS4; settings: syn-CDP formed in situ from GGDP by OsCPS4; type A activity; product syn-pimara-7,15-diene
T3 construct: His6-tag, pCold I, E. coli M-15
T3 sequence (A0A173M1U8 entry or part of it D394G/D395G): as the sequence (A0A173M1U8 entry or part of it) above, with D309G, D310G counted along it

T1 sequence (Q0JF02 48-767): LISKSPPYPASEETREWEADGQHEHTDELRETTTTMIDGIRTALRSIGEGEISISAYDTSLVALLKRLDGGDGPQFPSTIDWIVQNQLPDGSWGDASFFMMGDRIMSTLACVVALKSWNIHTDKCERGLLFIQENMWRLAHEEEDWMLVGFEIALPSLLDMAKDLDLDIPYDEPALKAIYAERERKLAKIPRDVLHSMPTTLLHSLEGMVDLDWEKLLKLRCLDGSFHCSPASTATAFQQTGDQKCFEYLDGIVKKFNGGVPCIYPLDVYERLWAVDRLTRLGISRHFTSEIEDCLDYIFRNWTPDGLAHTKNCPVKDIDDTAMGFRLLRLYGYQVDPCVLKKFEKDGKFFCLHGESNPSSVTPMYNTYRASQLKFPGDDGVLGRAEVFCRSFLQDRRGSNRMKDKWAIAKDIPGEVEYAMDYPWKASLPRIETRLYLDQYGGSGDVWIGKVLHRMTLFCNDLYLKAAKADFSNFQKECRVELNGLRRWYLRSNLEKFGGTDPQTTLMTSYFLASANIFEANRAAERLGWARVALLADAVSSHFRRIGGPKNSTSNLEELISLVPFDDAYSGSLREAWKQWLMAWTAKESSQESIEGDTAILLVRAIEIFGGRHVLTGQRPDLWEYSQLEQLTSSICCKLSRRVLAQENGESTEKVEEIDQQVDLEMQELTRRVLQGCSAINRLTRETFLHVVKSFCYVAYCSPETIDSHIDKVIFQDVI

SMILES | GC-MS of product after dephosphorylation (OsCPS4) | GC-MS of reaction product (HpDTC1 [1]) | GC-MS of product, co-incubation with OsCPS4 (HpDTC1 [2])
CC(C)=CCC/C(C)=C/CC/C(C)=C/CC/C(C)=C/COP(=O)(O)OP(=O)(O)O [GGDP] | syn-copalol derived from syn-CDP, product of OsCPS4 | used for the enzyme assay using GGDP as a substrate | 
C=C1CC[C@H]2C(C)(C)CCC[C@]2(C)[C@@H]1CC/C(C)=C/COP(=O)(O)OP(=O)(O)O [syn-CDP] |  |  | Co-incubation with OsCPS4 and the type B mutant of HpDTC1 (DIGG) complemented the impaired

From PMC4853780, “HpDTC1, a Stress-Inducible Bifunctional Diterpene Cyclase Involved in Momilactone Biosynthesis, Functions in Chemical Defence in the Moss Hypnum plumaeforme” (Scientific Reports, 2016)
